These compounds were tested on HEK293 (assay: Selectivity for human DAT over human SERT transfected in human HEK293 cells).
Type: cell-based

Structure (SMILES)	Ratio Ki
O=C(OCCF)C1C2CCC(CC1c1cccc(/C=C/I)c1)N2 (trans isomer)	18
O=C(OCCCF)C1C2CCC(CC1c1cccc(/C=C\Br)c1)N2 (stereo not given)	360
O=C(OCCF)C1C2CCC(CC1c1cccc(/C=C\I)c1)N2 (stereo not given)	204
O=C(OCCCF)C1C2CCC(CC1c1cccc(/C=C\I)c1)N2 (stereo not given)	691
O=C(OCCF)C1C2CCC(CC1c1cccc(/C=C\Br)c1)N2 (stereo not given)	108

What follows are compounds tested against Sodium-dependent serotonin transporter (Homo sapiens, UniProt P31645) (assay: Displacement of [3H](R,S)citalopram.HBr from human SERT transfected in human HEK293 cells).
Chain of Sodium-dependent serotonin transporter (P31645 whole entry): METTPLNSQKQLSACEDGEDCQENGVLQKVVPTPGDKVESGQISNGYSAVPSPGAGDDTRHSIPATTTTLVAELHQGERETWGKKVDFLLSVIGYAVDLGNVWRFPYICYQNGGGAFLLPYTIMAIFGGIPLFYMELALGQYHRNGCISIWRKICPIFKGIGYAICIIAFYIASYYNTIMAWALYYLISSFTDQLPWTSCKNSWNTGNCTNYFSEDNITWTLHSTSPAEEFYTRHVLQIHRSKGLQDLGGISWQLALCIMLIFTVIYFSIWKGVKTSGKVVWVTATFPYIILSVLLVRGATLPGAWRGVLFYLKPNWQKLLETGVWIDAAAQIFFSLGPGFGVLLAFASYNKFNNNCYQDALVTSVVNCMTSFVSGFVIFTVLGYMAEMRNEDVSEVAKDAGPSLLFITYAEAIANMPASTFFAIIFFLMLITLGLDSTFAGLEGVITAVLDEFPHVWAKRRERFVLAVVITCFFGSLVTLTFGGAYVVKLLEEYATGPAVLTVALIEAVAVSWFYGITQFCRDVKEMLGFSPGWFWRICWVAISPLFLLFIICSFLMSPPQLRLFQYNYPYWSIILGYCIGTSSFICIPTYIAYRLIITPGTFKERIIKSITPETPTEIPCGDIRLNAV
Type: cell-based

Structure (SMILES)	Ki [µM]
O=C(OCCF)C1C2CCC(CC1c1cccc(/C=C/I)c1)N2 (trans isomer)	0.0152
O=C(OCCCF)C1C2CCC(CC1c1cccc(/C=C\Br)c1)N2 (stereo not given)	0.00033
O=C(OCCF)C1C2CCC(CC1c1cccc(/C=C\I)c1)N2 (stereo not given)	0.00043
O=C(OCCCF)C1C2CCC(CC1c1cccc(/C=C\I)c1)N2 (stereo not given)	0.00026
O=C(OCCF)C1C2CCC(CC1c1cccc(/C=C\Br)c1)N2 (stereo not given)	0.00033

These compounds were tested against Sodium-dependent dopamine transporter (Homo sapiens, UniProt Q01959) (assay: Displacement of [3H]RTI-55 from human DAT transfected in human HEK293 cells).
Chain of Sodium-dependent dopamine transporter (Q01959 whole entry): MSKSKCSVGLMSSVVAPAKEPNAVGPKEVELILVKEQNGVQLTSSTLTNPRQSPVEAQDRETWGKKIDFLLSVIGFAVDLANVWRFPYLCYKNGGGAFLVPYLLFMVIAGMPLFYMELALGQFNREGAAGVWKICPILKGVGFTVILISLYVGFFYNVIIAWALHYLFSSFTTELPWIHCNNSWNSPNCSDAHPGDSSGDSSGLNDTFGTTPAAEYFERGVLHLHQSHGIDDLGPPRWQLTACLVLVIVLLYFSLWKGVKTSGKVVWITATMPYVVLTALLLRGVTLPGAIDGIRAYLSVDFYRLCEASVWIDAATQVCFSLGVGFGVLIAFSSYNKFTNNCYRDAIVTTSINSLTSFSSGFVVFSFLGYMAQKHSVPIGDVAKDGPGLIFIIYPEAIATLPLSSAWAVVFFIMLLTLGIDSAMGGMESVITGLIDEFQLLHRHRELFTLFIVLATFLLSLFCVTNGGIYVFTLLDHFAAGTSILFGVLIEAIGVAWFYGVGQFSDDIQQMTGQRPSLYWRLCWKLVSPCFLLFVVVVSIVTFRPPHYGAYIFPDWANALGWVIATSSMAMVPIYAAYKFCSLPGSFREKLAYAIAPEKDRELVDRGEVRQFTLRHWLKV
Type: cell-based

Structure (SMILES)	Ki [µM]
O=C(OCCF)C1C2CCC(CC1c1cccc(/C=C/I)c1)N2 (trans isomer)	0.274
O=C(OCCCF)C1C2CCC(CC1c1cccc(/C=C\Br)c1)N2 (stereo not given)	0.119
O=C(OCCF)C1C2CCC(CC1c1cccc(/C=C\I)c1)N2 (stereo not given)	0.0876
O=C(OCCCF)C1C2CCC(CC1c1cccc(/C=C\I)c1)N2 (stereo not given)	0.18
O=C(OCCF)C1C2CCC(CC1c1cccc(/C=C\Br)c1)N2 (stereo not given)	0.0355

The compounds below were run against Sodium-dependent noradrenaline transporter (Homo sapiens, UniProt P23975) (assay: Displacement of [3H]nisoxetine from human NET transfected in human HEK293 cells).
Chain of Sodium-dependent noradrenaline transporter (P23975 whole entry): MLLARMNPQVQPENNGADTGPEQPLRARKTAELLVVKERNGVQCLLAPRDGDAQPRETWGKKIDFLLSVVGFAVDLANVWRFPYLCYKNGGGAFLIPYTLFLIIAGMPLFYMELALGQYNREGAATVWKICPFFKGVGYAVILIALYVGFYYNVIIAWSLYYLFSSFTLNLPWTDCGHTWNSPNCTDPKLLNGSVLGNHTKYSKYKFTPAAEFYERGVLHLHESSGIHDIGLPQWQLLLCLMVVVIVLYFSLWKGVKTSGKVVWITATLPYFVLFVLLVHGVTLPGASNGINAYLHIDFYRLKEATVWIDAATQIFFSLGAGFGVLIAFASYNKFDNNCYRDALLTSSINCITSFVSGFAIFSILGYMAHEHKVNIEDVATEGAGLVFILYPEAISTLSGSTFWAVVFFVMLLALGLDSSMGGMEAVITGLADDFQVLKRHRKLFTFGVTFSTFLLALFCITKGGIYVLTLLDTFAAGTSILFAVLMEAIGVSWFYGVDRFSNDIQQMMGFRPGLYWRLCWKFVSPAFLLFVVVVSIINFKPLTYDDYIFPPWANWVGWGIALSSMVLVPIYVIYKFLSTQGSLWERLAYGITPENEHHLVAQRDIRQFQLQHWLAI
Type: cell-based

Structure (SMILES)	Ki [µM]
O=C(OCCF)C1C2CCC(CC1c1cccc(/C=C/I)c1)N2 (trans isomer)	1.18
O=C(OCCCF)C1C2CCC(CC1c1cccc(/C=C\Br)c1)N2 (stereo not given)	0.0302
O=C(OCCF)C1C2CCC(CC1c1cccc(/C=C\I)c1)N2 (stereo not given)	0.11
O=C(OCCCF)C1C2CCC(CC1c1cccc(/C=C\I)c1)N2 (stereo not given)	0.0675
O=C(OCCF)C1C2CCC(CC1c1cccc(/C=C\Br)c1)N2 (stereo not given)	0.101

Each compound was assayed on HEK293 (assay: Selectivity for human NET over human SERT transfected in human HEK293 cells).
Type: cell-based

Structure (SMILES)	Ratio Ki
O=C(OCCF)C1C2CCC(CC1c1cccc(/C=C/I)c1)N2 (trans isomer)	78
O=C(OCCCF)C1C2CCC(CC1c1cccc(/C=C\Br)c1)N2 (stereo not given)	92
O=C(OCCF)C1C2CCC(CC1c1cccc(/C=C\I)c1)N2 (stereo not given)	256
O=C(OCCCF)C1C2CCC(CC1c1cccc(/C=C\I)c1)N2 (stereo not given)	260
O=C(OCCF)C1C2CCC(CC1c1cccc(/C=C\Br)c1)N2 (stereo not given)	307
